# Several values for one entry are separate records, joined by “and”; a condition that tells them apart may be missing. Identical values can stand only once. Like-named read-outs stand apart in the source and are kept apart here. Marks after values point to notes of the source that are not given here. Square brackets hold non-standard residues; d marks the D form. Peptide text beside a SMILES is read from it. ξ: configuration not given here. Ile(3ξ) = CCC(C)[C@H](N)C(=O)O; Thr(3ξ) = CC(O)[C@H](N)C(=O)O; Nle = CCCC[C@H](N)C(=O)O
# How the values were obtained:
# [1] = Plasma concentration of apraglutide (LC-MS/MS) in Phase 2 metabolic balance trial (Example 6); format: in vivo, human; conditions: 5 mg SC once weekly, SBS patients
# Description: Blood samples for analysis of the plasma concentration of apraglutide and plasma concentration of fasting L-citrulline, a marker of enterocyte mass, were collected at baseline, during first and second injection (pre-dose and at sequential timepoints), four days after first injection and at the end of treatment. Blood sampling for apraglutide pharmacokinetics was also performed after the fourth and last injection covering 96 hours. […] Blood samples for anti-apraglutide antibodies were collected at baseline, at the end of treatment and at the 4-6 weeks follow-up visit. All eight patients tested negative for anti-apraglutide antibodies at baseline.
# Apraglutide and L-citrulline were quantified using a validated LC-MS-based method. For a apraglutide, the analytical method used solid-phase extraction purification of the intact apraglutide molecule and its internal standard. The compounds were identified and quantified using reversed-phase HPLC with MS/MS detection using an AB Sciex API 5000 quadrupole mass spectrometer. For samples below the limit of quantification of 5.00 ng/mL, compounds were identified and quantified using reversed-phase UHPLC with MS/MS detection using an AB Sciex API 5500 quadrupole mass spectrometer. For L-citrulline, the analytical method used protein precipitation extraction of L-citrulline and its internal standard. The compounds were identified and quantified using Hilic HPLC with MS/MS detection using an AB Sciex API 5000 quadrupole mass spectrometer.
# [2] = MCP-MOD dose-response analysis of citrulline (week 6) in healthy volunteers (Example 7); set-up: species or system human; conditions: for MCP step, estimate of the difference: citrulline week 6
# From the text: The MCP-MOD procedure was applied. This statistical methodology consisted of 2 steps: the multiple comparisons step and the modelling step. The first step of the procedure (MCP) is used to test for a significant dose response by assessing pre-specified candidate models. Once a dose response has been established, the second step (MOD) is used to estimate a dose-response curve and estimation of target doses of interest. Five candidate models were specified:
# Linear model with maximum effect for the 10 mg dose
# Log-linear model with maximum effect for the 10 mg dose
# Dose that induces maximum effect (Emax) model with ED50 of 5 mg
# Sigmoidal Emax model with ED50 of 1 mg and hill coefficient (HILL) of 2
# Sigmoidal Emax model with ED50 of 5 mg and HILL of 5
# A subset of the citrulline data was made with the average pre-value and day 35 to 42=week 6 data. The coefficients were implemented in the mixed model analysis of variance with fixed factors treatment, time and treatment by time, random factor subject, and the average prevalue as covariate. The average pre-value was calculated from all pre-values after screening and before dosing.
# The following contrasts are calculated within the model:
# For all pharmacodynamic endpoints (citrulline, Bristol stool scale and weight), the pre-value has been used as covariate. The average pre-value was calculated from all pre-values after screening and before dosing, except for the Bristol stool scale, where the screening value was also used to calculate the average baseline. The average pre-value of citrulline was also used as covariate in the MCP-MOD, except in the Sigmoid Emax model. This was addressed by subtracting the pre-value times the slope of the linear model of the MCP part from the values of week 6.
# [3] = human, in vivo
# Description: (§1) 23 healthy adult volunteers received 6 weekly subcutaneous doses of apraglutide (1, 5, or 10 mg) or placebo and were followed for a further 6 weeks after the last dose. Blood collections were controlled for diet, lifestyle, and diurnal effects. […] PK data underwent non-compartmental analysis and PD data were analyzed by ANCOVA.
# (§2) As with citrulline, a statistical steady-state analysis per dose level was performed for apraglutide using Helmert's approach.
# [4] = as compared with human GLP-2 and other GLP-2 analogues; cited from earlier work
# [5] = Multiple dose study in healthy volunteers (Examples 4 and 7), pharmacokinetics of plasma apraglutide, non-compartmental analysis; conditions: for CL/F / AUC(0-t) / half-life / Cmax / Tmax / Vd/F: human, plasma
# Description: as §1, §2
compound,measurement,setting,value
"CCCC[C@H](NC(=O)[C@H](CCC(=O)O)NC(=O)[C@H](CC(=O)O)NC(=O)[C@H](CO)NC(=O)[C@H](Cc1ccccc1)NC(=O)[C@H](CO)NC(=O)CNC(=O)[C@H](CC(=O)O)NC(=O)CNC(=O)[C@@H](N)Cc1c[nH]cn1)C(=O)N[C@H](Cc1ccccc1)C(=O)N[C@H](C(=O)N[C@H](C(=O)N[C@@H](CC(C)C)C(=O)N[C@@H](CC(=O)O)C(=O)N[C@@H](CC(C)C)C(=O)N[C@@H](CC(C)C)C(=O)N[C@@H](C)C(=O)N[C@@H](C)C(=O)N[C@@H](CCCNC(=N)N)C(=O)N[C@@H](CC(=O)O)C(=O)N[C@@H](Cc1ccccc1)C(=O)N[C@H](C(=O)N[C@@H](CC(N)=O)C(=O)N[C@@H](Cc1c[nH]c2ccccc12)C(=O)N[C@@H](CC(C)C)C(=O)N[C@H](C(=O)N[C@@H](CCC(N)=O)C(=O)N[C@H](C(=O)N[C@@H](CCCCN)C(=O)N[C@H](C(=O)N[C@H](C(=O)N[C@@H](CC(=O)O)C(N)=O)C(C)O)C(C)CC)C(C)O)C(C)CC)C(C)CC)C(C)CC)C(C)O (stereo partly drawn) [apraglutide, L-histidyl-glycyl-L-aspartyl-glycyl-L-seryl-L-phenylalanyl-L-seryl-L-aspartyl-L-glutamyl-L-norleucyl-D-phenylalanyl-L-threonyl-Lisoleucyl-L-leucyl-L-aspartyl-L-leucyl-L-leucyl-L-alanyl-L-alanyl-L-arginyl-L-aspartyl-L-phenylalanyl-L-isoleucyl-L-asparaginyl-Ltryptophanyl-L-leucyl-L-isoleucyl-L-glutaminyl-L-threonyl-L-lysyl-L-isoleucyl-L-threonyl-Laspartic acid amide] (H-HGDGSFSDE[Nle][dF][Thr(3ξ)][Ile(3ξ)]LDLLAARDF[Ile(3ξ)]NWL[Ile(3ξ)]Q[Thr(3ξ)]K[Ile(3ξ)][Thr(3ξ)]D-NH2)",Mean clearance,[1],0.9 L/h
same,Cmax,"[1]; human, plasma, read-out: Maximum mean plasma concentration",118 ng/mL
same,half-life,"[1]; human, plasma, read-out: Mean elimination half-life (converted)",1620 min
same,Tmax,"[1]; human, plasma, read-out: Mean time to maximum concentration",29.5 h
same,Predicted citrulline change from placebo effect for dose of 1 mg,[2]; Emax model,0.8535 µg/mL
same,Predicted citrulline change from placebo effect for dose of 5 mg,[2]; Emax model,2.2442 µg/mL
same,Predicted citrulline change from placebo effect for dose of 10 mg,[2]; Emax model,2.8182 µg/mL
same,Predicted dose for citrulline change from placebo of 1 μg/mL,[2]; Emax model,1.2333 mg
same,Predicted dose for citrulline change from placebo of 2 μg/mL,[2]; Emax model,3.8471 mg
same,Predicted dose for citrulline change from placebo of 3 μg/mL,[2]; Emax model,13.1053 mg
same,Predicted citrulline change from placebo effect for dose of 1 mg,[2]; Log-linear model,0.8712 µg/mL
same,Predicted citrulline change from placebo effect for dose of 5 mg,[2]; Log-linear model,2.1652 µg/mL
same,Predicted citrulline change from placebo effect for dose of 10 mg,[2]; Log-linear model,2.8604 µg/mL
same,Predicted dose for citrulline change from placebo of 1 μg/mL,[2]; Log-linear model,1.2249 mg
same,Predicted dose for citrulline change from placebo of 2 μg/mL,[2]; Log-linear model,4.2011 mg
same,Predicted dose for citrulline change from placebo of 3 μg/mL,[2]; Log-linear model,11.4325 mg
same,Predicted citrulline change from placebo effect for dose of 1 mg,[2]; Sigmoid Emax model,0.7125 µg/mL
same,Predicted citrulline change from placebo effect for dose of 5 mg,[2]; Sigmoid Emax model,2.3327 µg/mL
same,Predicted citrulline change from placebo effect for dose of 10 mg,[2]; Sigmoid Emax model,2.6946 µg/mL
same,Predicted dose for citrulline change from placebo of 1 μg/mL,[2]; Sigmoid Emax model,1.3606 mg
same,Predicted dose for citrulline change from placebo of 2 μg/mL,[2]; Sigmoid Emax model,3.4042 mg
same,Predicted dose for citrulline change from placebo of 2.5 μg/mL,[2]; Sigmoid Emax model,6.4619 mg
same,"MCP step, estimate of the difference",[2]; candidate model Emax with ED50 = 5 mg,2.2150
same,"MCP step, estimate of the difference",[2]; candidate model Linear,2.0781
same,"MCP step, estimate of the difference",[2]; candidate model Log-linear,2.2125
same,"MCP step, estimate of the difference",[2]; candidate model Sigmoid Emax with ED50 = 1 mg and H = 2,2.1663
same,"MCP step, estimate of the difference",[2]; candidate model Sigmoid Emax with ED50 = 5 mg and H = 5,2.0713
same,Quantifiable concentration in the last pharmacokinetic sample (2 weeks after last dose),[3],up to 4.46 ng/mL
same,"CL/F, arithmetic mean ± SD",[3]; 5 mg,16.480 L/day
same,"CL/F, arithmetic mean ± SD",[3]; 10 mg,20.747 L/day
same,half-life,[4],at least 30 hours
same,"1st Ctrough, arithmetic mean ± SD",[5]; 1 mg,0.000 ng/mL and 0.000 ± 0.000 ng/mL
same,"4th Ctrough, arithmetic mean ± SD",[5]; 1 mg,0.873 ng/mL
same,"AUCtau, arithmetic mean ± SD","[5]; 1 mg, (first dose)",35.214 ng·days/mL
same,"AUCtau/dose, Arithmetic mean ± standard deviation","[5]; 1 mg, (first dose)",0.03037 ± 152.1 ng·days/mL/µg
same,"AUCtau/dose, Arithmetic mean ± standard deviation","[5]; 1 mg, dose #6",0.05813 ± 23.1 ng·days/mL/µg
same,"4th Ctrough, arithmetic mean ± SD",[5]; 5 mg,10.163 ng/mL
same,"5th Ctrough, arithmetic mean ± SD",[5]; 5 mg,7.605 ng/mL
same,"AUCtau, arithmetic mean ± SD","[5]; 5 mg, (first dose)",300.269 ng·days/mL
same,"AUCtau/dose, Arithmetic mean ± standard deviation","[5]; 5 mg, (first dose)",0.05407 ± 47.1 ng·days/mL/µg
same,"AUCtau/dose, Arithmetic mean ± standard deviation","[5]; 5 mg, dose #6",0.06595 ± 47.2 ng·days/mL/µg
same,"Lambda_Z, Arithmetic mean ± standard deviation","[5]; 5 mg, dose #6 (N = 4)",0.2384 ± 36.6** 1/d
same,"Lambda_Z, arithmetic mean ± SD","[5]; 5 mg, dose #6 (N = 4)",0.2508 ± 0.09871** 1/d
same,"2nd Ctrough, arithmetic mean ± SD",[5]; 10 mg,18.460 ng/mL
same,"6th Ctrough, arithmetic mean ± SD",[5]; 10 mg,13.710 ng/mL
same,"AUCtau, arithmetic mean ± SD","[5]; 10 mg, (first dose)",476.937 ng·days/mL
same,"AUCtau/dose, Arithmetic mean ± standard deviation","[5]; 10 mg, (first dose)",0.04291 ± 47.6 ng·days/mL/µg
same,Steady-state contrast: mean Ctrough over week 3 to 6 against week 2,"[5]; 10 mg, Helmert's approach",−3.616
same,"Lambda_Z, arithmetic mean ± SD","[5]; 10 mg, dose #6",0.2463 ± 0.09975 day⁻¹
same,"AUCtau/dose, Arithmetic mean ± standard deviation","[5]; 10 mg, dose #6 (N = 5)",0.05288 ± 52.4 ng·days/mL/µg
same,"Lambda_Z, Arithmetic mean ± standard deviation","[5]; 10 mg, dose #6 (N = 5)",0.231 ± 41.3* 1/d
same,"Kinetics over the 1 to 10 mg dose range, in words",[5]; dose-normalized Cmax and AUCtau,follows linear kinetics
same,CL/F,"[5]; sc, 1 mg",11.9 mL/min
same,AUC(0-t),"[5]; sc, 1 mg, AUClast, Arithmetic mean ± standard deviation, dose #6",1310 ng·h/mL
same,AUC(0-t),"[5]; sc, 1 mg, AUClast, arithmetic mean ± SD, dose #6",1360 ng·h/mL
same,AUC(0-t),"[5]; sc, 1 mg, AUCtau, arithmetic mean ± SD, (first dose)",845 ng·h/mL
same,CL/F,"[5]; sc, 5 mg",10.5 mL/min
same,AUC(0-t),"[5]; sc, 5 mg, AUClast, Arithmetic mean ± standard deviation, dose #6",8500 ng·h/mL
same,AUC(0-t),"[5]; sc, 5 mg, AUClast, arithmetic mean ± SD, dose #6",9170 ng·h/mL
same,AUC(0-t),"[5]; sc, 5 mg, AUCtau, arithmetic mean ± SD, (first dose)",7210 ng·h/mL
same,CL/F,"[5]; sc, 10 mg",13.1 mL/min
same,AUC(0-t),"[5]; sc, 10 mg, AUClast, Arithmetic mean ± standard deviation, dose #6 (N = 5)",13800 ng·h/mL
same,AUC(0-t),"[5]; sc, 10 mg, AUCtau, arithmetic mean ± SD, (first dose)",11400 ng·h/mL
same,half-life,"[5]; sc, 10 mg, Half-life indicated by PK parameters, healthy volunteers, 6 weekly SC doses of 1, 5 or 10 mg",3 days
same,Cmax,"[5]; subcutaneous, 1 mg, arithmetic mean ± SD, (first dose)",13.9 ± 11.2 ng/mL
same,Cmax,"[5]; subcutaneous, 1 mg, arithmetic mean ± SD, dose #6",24.2 ± 9.22 ng/mL
same,Cmax,"[5]; subcutaneous, 1 mg, geometric mean (geometric coefficient of variation %), (first dose)",12.3 ± 146 ng/mL
same,Tmax,"[5]; subcutaneous, 1 mg, tmax at dose 1 and 6, 1 mg",~24 h
same,Tmax,"[5]; subcutaneous, 1 mg, tmax, median, (first dose)",24 h
same,Tmax,"[5]; subcutaneous, 1 mg, tmax, median, dose #6",21.6 h
same,Vd/F,"[5]; subcutaneous, 5 mg",50.2 ± 61 L
same,Cmax,"[5]; subcutaneous, 5 mg, arithmetic mean ± SD, (first dose)",94.1 ± 50.5 ng/mL
same,Cmax,"[5]; subcutaneous, 5 mg, arithmetic mean ± SD, dose #6",125 ± 72.1 ng/mL
same,Cmax,"[5]; subcutaneous, 5 mg, geometric mean (geometric coefficient of variation %), (first dose)",84.1 ± 55.1 ng/mL
same,Cmax,"[5]; subcutaneous, 5 mg, geometric mean (geometric coefficient of variation %), dose #6",108 ± 64.6 ng/mL
same,half-life,"[5]; subcutaneous, 5 mg, Half life, 5 mg, following dose #6",3.03 ± 0.958 days
same,half-life,"[5]; subcutaneous, 5 mg, t1/2, lower section headed Arithmetic mean ± standard deviation, dose #6 (N = 4)",2.91 days
same,Tmax,"[5]; subcutaneous, 5 mg, tmax at dose 1 and 6, 5 mg",~24 h
same,Tmax,"[5]; subcutaneous, 5 mg, tmax, median, (first dose)",24 h
same,Tmax,"[5]; subcutaneous, 5 mg, tmax, median, dose #6",24 h
same,Vd/F,"[5]; subcutaneous, 10 mg",81.9 ± 98.6 L
same,Cmax,"[5]; subcutaneous, 10 mg, arithmetic mean ± SD, (first dose)",137 ± 55 ng/mL
same,Cmax,"[5]; subcutaneous, 10 mg, arithmetic mean ± SD, dose #6",182 ± 97.6 ng/mL
same,Cmax,"[5]; subcutaneous, 10 mg, geometric mean (geometric coefficient of variation %), (first dose)",128 ± 39.9 ng/mL
same,half-life,"[5]; subcutaneous, 10 mg, Half life, 10 mg, following dose #6",3.18 ± 1.15 days
same,half-life,"[5]; subcutaneous, 10 mg, t1/2, lower section headed Arithmetic mean ± standard deviation, dose #6 (N = 5)",3 days
same,Tmax,"[5]; subcutaneous, 10 mg, tmax at dose 1 and 6, 10 mg",~48 h
same,Tmax,"[5]; subcutaneous, 10 mg, tmax, median, (first dose)",45.6 h
same,Tmax,"[5]; subcutaneous, 10 mg, tmax, median, dose #6",45.6 h

# — patent US11766470B2, “Manufacture, formulation and dosing of apraglutide” (VectivBio AG, priority 2020, dated 2023)
